Holding throughout (experiment): AK assay 384-well format, Prestwick library screening
Test [1] has as its system S. aureus strain USA300-0114. It is filed as cell-based, Staphylococcus aureus. Conditions: 50 μM final drug concentration; for fold induction at 50 µM: Staphylococcus aureus, USA300, 3 h.
The test system of test [2] is P. aeruginosa. The class given is cell-based, Pseudomonas aeruginosa. The conditions noted are these: 50 μM final drug concentration; for fold induction at 50 µM: Pseudomonas aeruginosa, 3 h.
Test [3] has as its system K. pneumoniae. It is filed as cell-based, Klebsiella pneumoniae. Conditions: 50 μM final drug concentration; for fold induction at 50 µM: Klebsiella pneumoniae, 3 h.
For test [4], the system named is E. faecium. It is filed as cell-based, Enterococcus faecium. Conditions: 50 μM final drug concentration; for fold induction at 50 µM: Enterococcus faecium, 3 h.
The subject of test [5] is E. cloacae. The class given is cell-based, Enterobacter cloacae. Conditions: 50 μM final drug concentration; for fold induction at 50 µM: Enterobacter cloacae, 3 h.
Test [6] has as its system E. coli. The class given is cell-based, Escherichia coli. Conditions: 50 μM final drug concentration; for fold induction at 50 µM: Escherichia coli, 3 h.
The test system of test [7] is A. baumannii strain 98-37-09. The class given is cell-based, Acinetobacter baumannii. The conditions noted are these: 50 μM final drug concentration; for fold induction at 50 µM: Acinetobacter baumannii, 983709, 3 h.
Setting [8] is: 384-well format, cutoff for positive-scoring molecules 3-fold increase.
Setting [9] is: 384-well format, cutoff for positive-scoring molecules 3-fold increase, read-out: AK-based Prestwick Library Screening Results, S. aureus (increase in extracellular AK activity).
[10] abbreviates: 384-well format, cutoff for positive-scoring molecules 3-fold increase, read-out: AK-based Prestwick Library Screening Results, P. aeruginosa (increase in extracellular AK activity).
Setting [11] is: 384-well format, cutoff for positive-scoring molecules 3-fold increase, read-out: AK-based Prestwick Library Screening Results, K. pneumoniae (increase in extracellular AK activity).
Setting [12] is: 384-well format, cutoff for positive-scoring molecules 3-fold increase, read-out: AK-based Prestwick Library Screening Results, E. faecium (increase in extracellular AK activity).
[13] abbreviates: 384-well format, cutoff for positive-scoring molecules 3-fold increase, read-out: AK-based Prestwick Library Screening Results, E. cloacae (increase in extracellular AK activity).
[14] abbreviates: 384-well format, cutoff for positive-scoring molecules 3-fold increase, read-out: AK-based Prestwick Library Screening Results, E. coli (increase in extracellular AK activity).
[15] abbreviates: 384-well format, cutoff for positive-scoring molecules 3-fold increase, read-out: AK-based Prestwick Library Screening Results, A. baumannii (increase in extracellular AK activity).

SMILES strings stand for the structures. Structures can show the parent of a compound that is named as a salt. Where two headings read alike, the source gives them in different places.

With `Nc1ccc(O)c(C(=O)O)c1` [Mesalamine], the fold induction at 50 µM in test [1] (planktonic S. aureus, positive cutoff 3-fold increase, read-out: AK-based Prestwick library screening result, S. aureus (fold increase in extracellular AK activity)) was 0.7; in test [2] (planktonic P. aeruginosa, positive cutoff 3-fold increase, read-out: AK-based Prestwick library screening result, P. aeruginosa (fold increase in extracellular AK activity)), 0.9; in test [3] (planktonic K. pneumoniae, positive cutoff 3-fold increase, read-out: AK-based Prestwick library screening result, K. pneumoniae (fold increase in extracellular AK activity)), 0.7; in test [4] (planktonic E. faecium, positive cutoff 3-fold increase, read-out: AK-based Prestwick library screening result, E. faecium (fold increase in extracellular AK activity)), 0.9; in test [5] (planktonic E. cloacae, positive cutoff 3-fold increase, read-out: AK-based Prestwick library screening result, E. cloacae (fold increase in extracellular AK activity)), 1; in test [6] (planktonic E. coli, positive cutoff 3-fold increase, read-out: AK-based Prestwick library screening result, E. coli (fold increase in extracellular AK activity)), 0.9. Besides, the fold induction at 50 µM in test [7] (planktonic A. baumannii, positive cutoff 3-fold increase, read-out: AK-based Prestwick library screening result, A. baumannii (fold increase in extracellular AK activity)) came to 0.9.
Consider `CN1CCCCC1CCN1c2ccccc2Sc2ccc([S+](C)[O-])cc21` (centres unmarked) [Mesoridazine besylate], for which the fold induction at 50 µM is 1.3 in test [1] (planktonic, cutoff for positive 3-fold increase, read-out: AK-based Prestwick Library Screening Results, S. aureus (fold increase in extracellular AK activity)); 1.2 in test [2] (planktonic, cutoff for positive 3-fold increase, read-out: AK-based Prestwick Library Screening Results, P. aeruginosa (fold increase in extracellular AK activity)); 1 in test [3] (planktonic, cutoff for positive 3-fold increase, read-out: AK-based Prestwick Library Screening Results, K. pneumoniae (fold increase in extracellular AK activity)); 1.1 in test [4] (planktonic, cutoff for positive 3-fold increase, read-out: AK-based Prestwick Library Screening Results, E. faecium (fold increase in extracellular AK activity)); 1.3 in test [5] (planktonic, cutoff for positive 3-fold increase, read-out: AK-based Prestwick Library Screening Results, E. cloacae (fold increase in extracellular AK activity)); 1.1 in test [6] (planktonic, cutoff for positive 3-fold increase, read-out: AK-based Prestwick Library Screening Results, E. coli (fold increase in extracellular AK activity)). The fold induction at 50 µM in test [7] (planktonic, cutoff for positive 3-fold increase, read-out: AK-based Prestwick Library Screening Results, A. baumannii (fold increase in extracellular AK activity)) stood at 1.
`C=N[C@@H](C(=O)N[C@@H]1C(=O)N2[C@@H]1SC(C)(C)[C@@H]2C(=O)O)c1ccccc1` [Metampicillin sodium salt]: the fold induction at 50 µM in test [1] (planktonic S. aureus, 384-well, cutoff for positive-scoring molecules 3-fold increase, read-out: AK-based Prestwick Library Screening Results: S. aureus (increase in extracellular AK activity)) is 1.3; in test [2] (planktonic P. aeruginosa, 384-well, cutoff for positive-scoring molecules 3-fold increase, read-out: AK-based Prestwick Library Screening Results: P. aeruginosa (increase in extracellular AK activity)), 1.3; in test [3] (planktonic K. pneumoniae, 384-well, cutoff for positive-scoring molecules 3-fold increase, read-out: AK-based Prestwick Library Screening Results: K. pneumoniae (increase in extracellular AK activity)), 1; in test [4] (planktonic E. faecium, 384-well, cutoff for positive-scoring molecules 3-fold increase, read-out: AK-based Prestwick Library Screening Results: E. faecium (increase in extracellular AK activity)), 1.6; in test [5] (planktonic E. cloacae, 384-well, cutoff for positive-scoring molecules 3-fold increase, read-out: AK-based Prestwick Library Screening Results: E. cloacae (increase in extracellular AK activity)), 4.3; in test [6] (planktonic E. coli, 384-well, cutoff for positive-scoring molecules 3-fold increase, read-out: AK-based Prestwick Library Screening Results: E. coli (increase in extracellular AK activity)), 16.8. In addition, in test [7] (planktonic A. baumannii, 384-well, cutoff for positive-scoring molecules 3-fold increase, read-out: AK-based Prestwick Library Screening Results: A. baumannii (increase in extracellular AK activity)), the fold induction at 50 µM stood at 1.1.
Consider `CNCC(O)c1ccc(O)c(OC)c1.Cl` (stereo not drawn) [Metanephrine hydrochloride DL], for which the “AK-based Prestwick Library Screening Results, S. aureus (increase in extracellular AK activity)” value in test [1] (setting [8]) turned out to be 1.2. For the same molecule, the “AK-based Prestwick Library Screening Results, P. aeruginosa (increase in extracellular AK activity)” value in test [2] (setting [8]) is recorded as 1.1. Moreover, in test [3] (setting [8]), the “AK-based Prestwick Library Screening Results, K. pneumoniae (increase in extracellular AK activity)” value came out at 1.0. The “AK-based Prestwick Library Screening Results, E. faecium (increase in extracellular AK activity)” value in test [4] (setting [8]) was 1.0. Moreover, in test [5] (setting [8]), the “AK-based Prestwick Library Screening Results, E. cloacae (increase in extracellular AK activity)” value is recorded as 1.3. The “AK-based Prestwick Library Screening Results, E. coli (increase in extracellular AK activity)” value in test [6] (setting [8]) was found to be 1.3. In addition, the “AK-based Prestwick Library Screening Results, A. baumannii (increase in extracellular AK activity)” value in test [7] (setting [8]) is 1.1.
Turning to `C[C@H](N)[C@H](O)c1cccc(O)c1` [Metaraminol bitartrate], the fold induction at 50 µM came to 0.7 in test [1] (setting [9]); 0.8 in test [2] (setting [10]); 0.8 in test [3] (setting [11]); 1 in test [4] (setting [12]); 1.3 in test [5] (setting [13]); 1 in test [6] (setting [14]). Also, the fold induction at 50 µM in test [7] (setting [15]) was determined as 0.9.
`CN1C[C@H](CNC(=O)OCc2ccccc2)C[C@@H]2c3cccc4c3c(cn4C)C[C@H]21` [Metergoline]: the fold induction at 50 µM in test [1] (planktonic S. aureus, cutoff for positive-scoring molecules 3-fold increase, read-out: AK-based Prestwick Library Screening Results, S. aureus (increase in extracellular AK activity)) is 1.1; in test [2] (planktonic P. aeruginosa, cutoff for positive-scoring molecules 3-fold increase, read-out: AK-based Prestwick Library Screening Results, P. aeruginosa (increase in extracellular AK activity)), 1.1; in test [3] (planktonic K. pneumoniae, cutoff for positive-scoring molecules 3-fold increase, read-out: AK-based Prestwick Library Screening Results, K. pneumoniae (increase in extracellular AK activity)) it was 1; in test [4] (planktonic E. faecium, cutoff for positive-scoring molecules 3-fold increase, read-out: AK-based Prestwick Library Screening Results, E. faecium (increase in extracellular AK activity)), 1; in test [5] (planktonic E. cloacae, cutoff for positive-scoring molecules 3-fold increase, read-out: AK-based Prestwick Library Screening Results, E. cloacae (increase in extracellular AK activity)), 1.3; in test [6] (planktonic E. coli, cutoff for positive-scoring molecules 3-fold increase, read-out: AK-based Prestwick Library Screening Results, E. coli (increase in extracellular AK activity)) it was 1.2. In addition, the fold induction at 50 µM in test [7] (planktonic A. baumannii, cutoff for positive-scoring molecules 3-fold increase, read-out: AK-based Prestwick Library Screening Results, A. baumannii (increase in extracellular AK activity)) was found to be 1.3.
Consider `CN(C)C(=N)N=C(N)N` [Metformin hydrochloride], for which the fold induction at 50 µM was 0.4 in test [1] (setting [9]); 0.3 in test [2] (setting [10]); 0.4 in test [3] (setting [11]); 0.8 in test [4] (setting [12]); 0.3 in test [5] (setting [13]); 0.5 in test [6] (setting [14]). Also, in test [7] (setting [15]), the fold induction at 50 µM was 0.4.
Take `CC(=O)OC(C)C[N+](C)(C)C` (centres unmarked) [Methacholine chloride]: the fold induction at 50 µM in test [1] (planktonic, cutoff for positive-scoring molecules 3-fold increase, read-out: AK-based Prestwick Library Screening Results, S. aureus (fold increase in extracellular AK activity)) is 0.7; in test [2] (planktonic, cutoff for positive-scoring molecules 3-fold increase, read-out: AK-based Prestwick Library Screening Results, P. aeruginosa (fold increase in extracellular AK activity)), 0.9; in test [3] (planktonic, cutoff for positive-scoring molecules 3-fold increase, read-out: AK-based Prestwick Library Screening Results, K. pneumoniae (fold increase in extracellular AK activity)), 0.7; in test [4] (planktonic, cutoff for positive-scoring molecules 3-fold increase, read-out: AK-based Prestwick Library Screening Results, E. faecium (fold increase in extracellular AK activity)), 0.9; in test [5] (planktonic, cutoff for positive-scoring molecules 3-fold increase, read-out: AK-based Prestwick Library Screening Results, E. cloacae (fold increase in extracellular AK activity)), 1.3; in test [6] (planktonic, cutoff for positive-scoring molecules 3-fold increase, read-out: AK-based Prestwick Library Screening Results, E. coli (fold increase in extracellular AK activity)) it was 0.9. The fold induction at 50 µM in test [7] (planktonic, cutoff for positive-scoring molecules 3-fold increase, read-out: AK-based Prestwick Library Screening Results, A. baumannii (fold increase in extracellular AK activity)) came out at 0.8.
